Assay results as given in US6737383B1, “Herbicidal oxadiazolidines” (priority 1999, dated 2004).

Key:
bedstraw = experiment: Test B pre/postemergence bedstraw; format: in vivo, Galium aparine
Outline: (§1)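 Test chemicals in a non-phytotoxic solvent mixture with surfactant were sprayed preemergence onto planted seeds and postemergence onto plants 2 to 18 cm tall (1- to 4-leaf stage). After twelve to sixteen days in a greenhouse, injury was visually rated against untreated controls from 0 (no effect) to 10 (complete control).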

blackgrass = experiment: Test B pre/postemergence blackgrass; format: in vivo, Alopecurus myosuroides
Outline: as §1

surinam grass = experiment: Test B pre/postemergence surinam grass; format: in vivo, Brachiaria decumbens
Outline: as §1

cocklebur = experiment: Test B pre/postemergence cocklebur; format: in vivo, Xanthium strumarium
Outline: as §1

corn = experiment: Test B pre/postemergence corn; format: in vivo, Zea mays
Outline: as §1

crabgrass = experiment: Test B pre/postemergence crabgrass; format: in vivo, Digitaria sanguinalis
Outline: as §1

giant foxtail = experiment: Test B pre/postemergence giant foxtail; format: in vivo, Setaria faberii
Outline: as §1

morningglory = experiment: Test B pre/postemergence morningglory; format: in vivo, Ipomoea hederacea
Outline: as §1

pigweed = experiment: Test B pre/postemergence pigweed; format: in vivo, Amaranthus retroflexus
Outline: as §1

rape = experiment: Test B pre/postemergence rape; format: in vivo, Brassica napus
Outline: as §1

soybean = experiment: Test B pre/postemergence soybean; format: in vivo, Glycine max
Outline: as §1

sugar beet = experiment: Test B pre/postemergence sugar beet; format: in vivo, Beta vulgaris
Outline: as §1

velvetleaf = experiment: Test B pre/postemergence velvetleaf; format: in vivo, Abutilon theophrasti
Outline: as §1

wheat = experiment: Test B pre/postemergence wheat; format: in vivo, Triticum aestivum
Outline: as §1

wild oat = experiment: Test B pre/postemergence wild oat; format: in vivo, Avena fatua
Outline: as §1

purple nutsedge = experiment: Test B pre/postemergence purple nutsedge; format: in vivo, Cyperus rotundus
Outline: as §1

[1] = Postemergence, Rate 62 g/ha, scale 0 to 10, 0 is no effect, 10 is complete control
[2] = Postemergence, Rate 125 g/ha, scale of 0 to 10 where 0 is no effect and 10 is complete control
[3] = Postemergence, Rate 500 g/ha, scale 0 (no effect) to 10 (complete control)
[4] = Preemergence, Rate 125 g/ha, scale of 0 to 10 where 0 is no effect and 10 is complete control
[5] = Preemergence, Rate 250 g/ha, scale 0 (no effect) to 10 (complete control)
[6] = Rate 62 g/ha, Preemergence, scale 0 to 10
[7] = Rate 250 g/ha, Postemergence, scale 0 to 10, 0 is no effect, 10 is complete control
[8] = Rate 500 g/ha, Preemergence, scale 0 to 10 (0 no effect, 10 complete control)

CC(C)N(C(=O)n1oc(=O)n(CCN(C)C(=O)c2ccccc2)c1=O)c1ccc(F)cc1F [Compound 762]
Plant response rating, Bedstraw (bedstraw; [1]): 0 | Bedstraw plant response rating (bedstraw; [2]): 0 | Bedstraw plant response rating (bedstraw; [3]): 0 | Plant response rating, Bedstraw (bedstraw; [4]): 0 | Bedstraw plant response rating (bedstraw; [5]): 0 | Bedstraw plant response rating (bedstraw; [6]): 0 | Bedstraw plant response rating (bedstraw; [7]): 0 | Bedstraw plant response rating (bedstraw; [8]): 0 | Plant response rating, Blackgrass (blackgrass; [1]): 0 | Blackgrass plant response rating (blackgrass; [2]): 0 | Blackgrass plant response rating (blackgrass; [3]): 0 | Plant response rating, Blackgrass (blackgrass; [4]): 0 | Blackgrass plant response rating (blackgrass; [5]): 7 | Blackgrass plant response rating (blackgrass; [6]): 0 | Blackgrass plant response rating (blackgrass; [7]): 0 | Blackgrass plant response rating (blackgrass; [8]): 9 | Plant response rating, B. signalgrass (surinam grass; [1]): 0 | B. signalgrass plant response rating (surinam grass; [2]): 0 | B. signalgrass plant response rating (surinam grass; Preemergence, Rate 62 g/ha, scale of 0 to 10 where 0 is no effect and 10 is complete control): 0 | Plant response rating, B. signalgrass (surinam grass; [4]): 0 | B. signalgrass plant response rating (surinam grass; [5]): 6 | B. signalgrass plant response rating (surinam grass; [7]): 2 | B. signalgrass plant response rating (surinam grass; Rate 500 g/ha, Postemergence, scale 0 to 10, 0 is no effect, 10 is complete control): 3 | B. signalgrass plant response rating (surinam grass; [8]): 9 | Plant response rating, Cocklebur (cocklebur; [1]): 0 | Cocklebur plant response rating (cocklebur; [2]): 0 | Cocklebur plant response rating (cocklebur; [3]): 0 | Plant response rating, Cocklebur (cocklebur; [4]): 0 | Cocklebur plant response rating (cocklebur; [5]): 0 | Cocklebur plant response rating (cocklebur; [6]): 0 | Cocklebur plant response rating (cocklebur; [7]): 0 | Cocklebur plant response rating (cocklebur; [8]): 0 | Plant response rating, Corn (corn; [1]): 0 | Corn plant response rating (corn; [2]): 0 | Corn plant response rating (corn; [3]): 2 | Plant response rating, Corn (corn; [4]): 0 | Corn plant response rating (corn; [5]): 0 | Corn plant response rating (corn; [6]): 0 | Corn plant response rating (corn; [7]): 2 | Corn plant response rating (corn; [8]): 0 | Plant response rating, Crabgrass (crabgrass; [1]): 0 | Crabgrass plant response rating (crabgrass; [2]): 0 | Crabgrass plant response rating (crabgrass; [3]): 8 | Plant response rating, Crabgrass (crabgrass; [4]): 4 | Crabgrass plant response rating (crabgrass; [5]): 4 | Crabgrass plant response rating (crabgrass; [7]): 3 | Crabgrass plant response rating (crabgrass; [8]): 0 | Giant foxtail plant response rating (giant foxtail; [2]): 0 | Plant response rating, Giant foxtail (giant foxtail; [4]): 10 | Giant foxtail plant response rating (giant foxtail; [5]): 9 | Giant foxtail plant response rating (giant foxtail; [6]): 5 | Giant foxtail plant response rating (giant foxtail; [7]): 8 | Giant foxtail plant response rating (giant foxtail; [8]): 9 | Plant response rating, Morningglory (morningglory; [1]): 0 | Morningglory plant response rating (morningglory; [2]): 2 | Morningglory plant response rating (morningglory; [3]): 2 | Plant response rating, Morningglory (morningglory; [4]): 0 | Morningglory plant response rating (morningglory; [5]): 0 | Morningglory plant response rating (morningglory; [6]): 0 | Morningglory plant response rating (morningglory; [7]): 2 | Morningglory plant response rating (morningglory; [8]): 0 | Plant response rating, Redroot pigweed (pigweed; [1]): 0 | Redroot pigweed plant response rating (pigweed; [2]): 0 | Redroot pigweed plant response rating (pigweed; [3]): 6 | Plant response rating, Redroot pigweed (pigweed; [4]): 2 | Redroot pigweed plant response rating (pigweed; [5]): 3 | Redroot pigweed plant response rating (pigweed; [6]): 2 | Redroot pigweed plant response rating (pigweed; [7]): 6 | Redroot pigweed plant response rating (pigweed; [8]): 3 | Plant response rating, Rape (rape; [1]): 0 | Rape plant response rating (rape; [3]): 0 | Plant response rating, Rape (rape; [4]): 0 | Rape plant response rating (rape; [5]): 0 | Rape plant response rating (rape; [6]): 0 | Rape plant response rating (rape; [7]): 0 | Rape plant response rating (rape; [8]): 0 | Plant response rating, Soybean (soybean; [1]): 2 | Soybean plant response rating (soybean; [3]): 4 | Plant response rating, Soybean (soybean; [4]): 0 | Soybean plant response rating (soybean; [5]): 0 | Soybean plant response rating (soybean; [6]): 0 | Soybean plant response rating (soybean; [7]): 4 | Soybean plant response rating (soybean; [8]): 0 | Plant response rating, Sugarbeets (sugar beet; [1]): 0 | Sugarbeets plant response rating (sugar beet; [3]): 6 | Plant response rating, Sugarbeets (sugar beet; [4]): 0 | Sugarbeets plant response rating (sugar beet; [5]): 4 | Sugarbeets plant response rating (sugar beet; [6]): 0 | Sugarbeets plant response rating (sugar beet; [7]): 6 | Sugarbeets plant response rating (sugar beet; [8]): 4 | Plant response rating, Velvetleaf (velvetleaf; [1]): 0 | Velvetleaf plant response rating (velvetleaf; [3]): 3 | Plant response rating, Velvetleaf (velvetleaf; [4]): 0 | Velvetleaf plant response rating (velvetleaf; [5]): 0 | Velvetleaf plant response rating (velvetleaf; [6]): 0 | Velvetleaf plant response rating (velvetleaf; [7]): 3 | Velvetleaf plant response rating (velvetleaf; [8]): 5 | Plant response rating, Wheat (wheat; [1]): 0 | Wheat plant response rating (wheat; [3]): 0 | Plant response rating, Wheat (wheat; [4]): 0 | Wheat plant response rating (wheat; [5]): 0 | Wheat plant response rating (wheat; [6]): 0 | Wheat plant response rating (wheat; [7]): 0 | Wheat plant response rating (wheat; [8]): 0 | Plant response rating, Wild oats (wild oat; [1]): 0 | Wild oats plant response rating (wild oat; [3]): 2 | Plant response rating, Wild oats (wild oat; [4]): 0 | Wild oats plant response rating (wild oat; [5]): 0 | Wild oats plant response rating (wild oat; [6]): 0 | Wild oats plant response rating (wild oat; [7]): 0 | Wild oats plant response rating (wild oat; [8]): 0 | Plant response rating, Nutsedge (purple nutsedge; [1]): 0 | Nutsedge plant response rating (purple nutsedge; [2]): 0 | Nutsedge plant response rating (purple nutsedge; [3]): 3 | Plant response rating, Nutsedge (purple nutsedge; [4]): 0 | Nutsedge plant response rating (purple nutsedge; [5]): 0 | Nutsedge plant response rating (purple nutsedge; [6]): 0 | Nutsedge plant response rating (purple nutsedge; [7]): 0 | Nutsedge plant response rating (purple nutsedge; [8]): 6
